{"source": "paper PMC11868595", "about": "“Safety, pharmacokinetics and efficacy of HA121-28 in patients with advanced solid tumors and RET fusion-positive non-small-cell lung cancer: a multicenter, open-label, single-arm phase 1/2 trial” (Signal Transduction and Targeted Therapy, 2025)", "system": "patients with advanced solid tumors", "assay": "Phase 1 trial: adverse events (CTCAE), DLT and MTD", "format": "in vivo, human", "experimental": "The phase 1 trial was a two-part, multicenter, open-label, nonrandomized study to evaluate the safety and preliminary efficacy of HA121-28.\nSafety, tolerability, and PK of HA121-28 was assessed in dose-escalation part. The single-patient accelerated titration was carried out at 25 mg and 50 mg; then, the dose escalation proceeded according to a “3 + 3” design in dose range of 100 to 800 mg. Escalation to a higher dose level was considered by the satisfactory review of safety results from the previous lower dose during the first cycle.\nThe dose-expansion part aims to further access the safety and efficacy of HA121-28 at the selected doses based on data from the dose-escalation part. The RP2D was determined by investigators in view of a thorough review of safety, PK, and efficacy results.\nIn phase 1 trial, during the dose-escalation part, patients first administered HA121-28 in a single ascending dose under the fasted state, then followed up for seven days. Then, patients received ascending doses of HA121-28 (q.d.) on a 21-day on and 7-day off treatment scheme for a 28-day cycle. For patients deemed beneficial from the treatment by investigators, treatment could remain until disease progression, or they discontinued from the study. In the dose-expansion part of phase 1, as well as phase 2, patients received HA121-28 (q.d.) at the selected doses on a 21-day on and 7-day off treatment scheme until disease progression, or they discontinued from the study.\nTreatment-emergent adverse events (TEAEs) were documented during the entire study period. The predefined adverse event of special interest (AESI) was ≥ grade 3 prolonged QT interval. Tumor imaging was performed using contrast-enhanced computed tomography or magnetic resonance imaging at screening, Day 28 of the first cycle, then approximately every eight weeks till the end of the study for phase 1; in phase 2, imaging was scheduled at screening, and every eight weeks during the first 40 weeks, followed by every 12 weeks for the rest of the study period. RECIST 1.1 was used by the independent review committee or investigators for assessment of tumor response. After the original assessment, a repeated assessment was required around four weeks later to confirm a complete or partial response.\nThe primary endpoints of phase 1 were to investigate the MTD, dose-limiting toxicities, and the incidence and severity of TEAEs. Each TEAE was graded according to the Common Terminology Criteria for Adverse Events (CTCAE, version 5.0) and coded by Medical Dictionary for Regulatory Activities (MedDRA, version 21.0). The secondary endpoints included calculating PK parameters, assessing the ORR and DCR at the recommended dose by investigators as per RECIST 1.1. The exploratory endpoint was PFS.\nIf grade 2 or higher toxicity related to the study drug occurs in Groups 1 and 2 (as determined by the investigator), dose escalation will proceed using a 3+3 design starting from that dose level. If no DLT is observed at the 800 mg/d dose level after dose escalation, a meeting of investigators will be convened to decide whether to proceed with further dose escalation based on the available PK data, safety, and tolerability information.\n5. Definition of DLT and MTD\nThe following events related to the study drug (including those that are definitely related, highly likely to be related, and possibly related):\n(1) Grade 4 hematologic toxicity or grade 3 neutropenia accompanied by a fever of 38.5℃ or higher, or grade 3 thrombocytopenia accompanied by severe bleeding.\n(2) Patients who discontinued the medication for more than 7 days due to unresolved toxicity reactions or who discontinued the medication more than twice due to toxicity […]\n(3) In the context of supportive treatment, diarrhea of grade 2 lasting more than 7 days, or grade 3 diarrhea lasting more than 3 days.", "key": {"[1]": {"details": "Phase 1 Study, patient 5 with Grade 3 QTc prolongation"}, "[2]": {"details": "Phase 1 Study, patient 9 with Grade 3 QTc prolongation"}}, "data": [{"compound": "COc1cc2c(Nc3ccc(Br)cc3F)ncnc2cc1OCCCCN(C)C.Cl.Cl", "note": "[HA121-28, N-(4-bromo-2-fluorophenyl)-7-(4-(dimethylamino)butoxy)-6-methoxy quinazolin-4-amine dihydrochloride]", "values": [{"measurement": "Serious TRAE: Hypoalbuminemia", "setting": "Phase 1, 800 mg (N=3)", "result": "0 No. (%)"}, {"measurement": "Serious TRAE: Intestinal obstruction", "setting": "Phase 1, 800 mg (N=3)", "result": "0 No. (%)"}, {"measurement": "Serious TRAE: Intra-abdominal fluid collection", "setting": "Phase 1, 800 mg (N=3)", "result": "0 No. (%)"}, {"measurement": "Serious TRAE: Intracranial tumor hemorrhage", "setting": "Phase 1, 800 mg (N=3)", "result": "0 No. (%)"}, {"measurement": "Serious TRAE: Liver injury", "setting": "Phase 1, 800 mg (N=3)", "result": "0 No. (%)"}, {"measurement": "Serious TRAE: Lung adenocarcinoma", "setting": "Phase 1, 800 mg (N=3)", "result": "0 No. (%)"}, {"measurement": "Serious TRAE: Malignant neoplasm progression", "setting": "Phase 1, 800 mg (N=3)", "result": "0 No. (%)"}, {"measurement": "Serious TRAE: Multiple organ dysfunction syndrome", "setting": "Phase 1, 800 mg (N=3)", "result": "0 No. (%)"}, {"measurement": "Serious TRAE: Nausea", "setting": "Phase 1, 800 mg (N=3)", "result": "0 No. (%)"}, {"measurement": "Serious TRAE: Nephrolithiasis", "setting": "Phase 1, 800 mg (N=3)", "result": "0 No. (%)"}, {"measurement": "Serious TRAE: Platelet counts decreased", "setting": "Phase 1, 800 mg (N=3)", "result": "0 No. (%)"}, {"measurement": "Serious TRAE: Pleural effusion", "setting": "Phase 1, 800 mg (N=3)", "result": "0 No. (%)"}, {"measurement": "Serious TRAE: Pneumonia", "setting": "Phase 1, 800 mg (N=3)", "result": "0 No. (%)"}, {"measurement": "Serious TRAE: Pneumonitis", "setting": "Phase 1, 800 mg (N=3)", "result": "0 No. (%)"}, {"measurement": "Serious TRAE: Prolonged QT interval", "setting": "Phase 1, 800 mg (N=3)", "result": "0 No. (%)"}, {"measurement": "Serious TRAE: Pulmonary embolism", "setting": "Phase 1, 800 mg (N=3)", "result": "0 No. (%)"}, {"measurement": "Serious TRAE: Pyrexia", "setting": "Phase 1, 800 mg (N=3)", "result": "0 No. (%)"}, {"measurement": "Serious TRAE: Rash", "setting": "Phase 1, 800 mg (N=3)", "result": "0 No. (%)"}, {"measurement": "Serious TRAE: Rectal hemorrhage", "setting": "Phase 1, 800 mg (N=3)", "result": "0 No. (%)"}, {"measurement": "Serious TRAE: Respiratory failure", "setting": "Phase 1, 800 mg (N=3)", "result": "0 No. (%)"}, {"measurement": "Serious TRAE: Seizure", "setting": "Phase 1, 800 mg (N=3)", "result": "0 No. (%)"}, {"measurement": "Serious TRAE: Septic shock", "setting": "Phase 1, 800 mg (N=3)", "result": "0 No. (%)"}, {"measurement": "Serious TRAE: Sudden cardiac arrest", "setting": "Phase 1, 800 mg (N=3)", "result": "0 No. (%)"}, {"measurement": "Serious TRAE: Sudden death", "setting": "Phase 1, 800 mg (N=3)", "result": "0 No. (%)"}, {"measurement": "Serious TRAE: Upper respiratory tract infection", "setting": "Phase 1, 800 mg (N=3)", "result": "0 No. (%)"}, {"measurement": "Serious TRAE: Ventricular tachycardia", "setting": "Phase 1, 800 mg (N=3)", "result": "0 No. (%)"}, {"measurement": "Serious TRAE: Vomiting", "setting": "Phase 1, 800 mg (N=3)", "result": "0 No. (%)"}, {"measurement": "Serious TRAE: Weight loss", "setting": "Phase 1, 800 mg (N=3)", "result": "1 (33.3) No. (%)"}, {"measurement": "Grade of cardiac TEAE: Cardiopalmus", "setting": "Phase 1 Study, patient 1 with Grade 3 QTc prolongation", "result": 2}, {"measurement": "Grade of cardiac TEAE: Bradycardia", "setting": "Phase 1 Study, patient 2 with Grade 3 QTc prolongation", "result": 1}, {"measurement": "Grade of cardiac TEAE: nodal tachycardia", "setting": "Phase 1 Study, patient 3 with Grade 3 QTc prolongation", "result": 1}, {"measurement": "Grade of cardiac TEAE: T wave anomaly", "setting": "Phase 1 Study, patient 4 with Grade 3 QTc prolongation", "result": 1}, {"measurement": "Grade of cardiac TEAE: Complete right bundle branch block", "setting": "[1]", "result": 1}, {"measurement": "Grade of cardiac TEAE: Incomplete right bundle branch block", "setting": "[1]", "result": 1}, {"measurement": "Grade of cardiac TEAE: sinus bradycardia", "setting": "[1]", "result": 1}, {"measurement": "Grade of cardiac TEAE: T wave anomaly", "setting": "Phase 1 Study, patient 6 with Grade 3 QTc prolongation", "result": 1}, {"measurement": "Grade of cardiac TEAE: Ventricular arrhythmia", "setting": "Phase 1 Study, patient 7 with Grade 3 QTc prolongation", "result": 4}, {"measurement": "Grade of cardiac TEAE: ST-T wave changes", "setting": "Phase 1 Study, patient 8 with Grade 3 QTc prolongation", "result": 1}, {"measurement": "Grade of cardiac TEAE: Abnormal Q wave of III and aVF leads", "setting": "[2]", "result": 2}, {"measurement": "Grade of cardiac TEAE: Atrial premature beats", "setting": "[2]", "result": 1}, {"measurement": "Grade of cardiac TEAE: ST-T wave changes", "setting": "[2]", "result": 1}, {"measurement": "Grade of cardiac TEAE: T wave anomaly", "setting": "[2]", "result": 1}, {"measurement": "maximum tolerated dose (MTD)", "setting": "once daily, phase 1 dose escalation", "result": 600, "unit": "mg"}, {"measurement": "AESI leading to dose interruption", "setting": "phase 1", "result": 10.6, "unit": "%"}, {"measurement": "AESI leading to permanent discontinuation", "setting": "phase 1", "result": 0.6, "unit": "%"}, {"measurement": "grade ≥ 3 TEAE diarrhea", "setting": "phase 1", "result": 8.1, "unit": "%"}, {"measurement": "grade ≥ 3 TEAE prolonged QT interval (AESI)", "setting": "phase 1", "result": 15.0, "unit": "%"}, {"measurement": "grade ≥ 3 TEAE rash", "setting": "phase 1", "result": 5.6, "unit": "%"}, {"measurement": "patients with at least one TEAE", "setting": "phase 1", "result": 99.4, "unit": "%"}, {"measurement": "patients with at least one TRAE", "setting": "phase 1", "result": 98.1, "unit": "%"}, {"measurement": "patients with grade ≥ 3 TEAEs", "setting": "phase 1", "result": 48.8, "unit": "%"}, {"measurement": "patients with grade ≥3 TRAEs", "setting": "phase 1", "result": 40.0, "unit": "%"}, {"measurement": "patients with treatment-related SAEs", "setting": "phase 1", "result": 14.4, "unit": "%"}, {"measurement": "treatment-related SAE rash", "setting": "phase 1", "result": 2.5, "unit": "%"}, {"measurement": "TEAE diarrhea", "setting": "phase 1, all grades", "result": 78.8, "unit": "%"}, {"measurement": "TEAE prolonged QT interval", "setting": "phase 1, all grades", "result": 50.0, "unit": "%"}, {"measurement": "TEAE rash", "setting": "phase 1, all grades", "result": 57.5, "unit": "%"}, {"measurement": "recommended phase 2 dose (RP2D)", "setting": "q.d., 21-day on/7-day off", "result": 450, "unit": "mg"}]}]}
